Test results reported in patent US7507727B2, “Substituted quinobenzoxazine analogs and methods of using thereof” (Cylene Pharmaceuticals, Inc., priority 2003, dated 2009).
“Also recorded” adds a separate entry of the source.

Tests used:
[1] = test system: HCT-116 xenograft; experiment: HCT-116 colorectal cancer xenograft model; type: in vivo; settings: HCT-116; 10, 15 and 20 mg/kg; FIG. 8
Method: Two xenograft models for inoculation were harvested and diluted to a concentration of 50×10^6 cells/ml or 100×10^6 cells/ml. Four to six week old nude mice were injected with 0.1 ml of the cell suspension containing between 5×10^6 and 10×10^6 cells. When tumors are of a suitable size compound dosing is commenced. Tumor sizes are measured throughout the treatment period with calipers and body weights also measured.
(§1) CX-3543 was tested against a number of cancer xenograft models to determine the in vivo efficacy. HCT-116 and PC-3 tumor-bearing nu/nu or MiaPaCa tumor-bearing SCID mice were administered reference and testing compounds on schedules indicated in figure legends. Tumor measurements were taken with calipers every other day or twice a week starting from the first day of dosing and body weights were measured at the same time points. Tumor volumes were calculated from the standard formula, W^2×L/2. c-MYC mRNA expression was measured with QPCR from all tumor samples following the final dose. 18S ribosomal RNA was used as a housekeeper and also quantified with QPCR.

[2] = test system: native quadruplex structures that regulate different oncogenes; experiment: Quadrome footprints; type: binding; settings: FIG. 4
Excerpt: Quadrome Footprints. Compounds may be evaluated for their ability to bind to other native quadruplex structures of biological relevance, including quadruplex control elements that regulate a range of different oncogenes.

[3] = Subacute study of intravenously administered CX-3543 in rats (safety and tolerance); type: in vivo
Method: This study determines the safety and tolerance of CX-3543 at three dose levels administered intravenously once daily to rats for five consecutive days. Safety parameters will be monitored through observation, clinical pathology, and microscopic histopathology assessments. Selected animals will also undergo blood sample collection for pharmacokinetic/toxicokinetic evaluation.
The study was conducted using three (3) test and one (1) control article groups. The high and low test article groups and the control group consisted of 28 animals each and were used to assess tolerance. The medium test article group consisted of 64 animals of which 28 animals were used to assess tolerance and 36 animals were used to determine the level of test article in the blood at various time points after the first and fifth doses in the PK/TK portion of the study. The control article was the solution (5% dextrose in water; D5W) used to dilute the test article prior to administration and was administered at the same volume as the high dose test article group. The test article dosage levels for this study were 24, 7.6, and 2.4 mg/kg. Test and control articles were administered by intravenous (IV) injection into a tail vein over one minute on five consecutive days.
Blood samples for test article blood level analysis were taken as follows. […]

[4] = test system: PC-3 xenograft; experiment: PC-3 prostate cancer xenograft model; type: in vivo, mice; settings: 5, 10 and 15 mg/kg i.p. q.o.d., FIG. 9
Method: as §1

[5] = test system: panel of cancer cell-lines; experiment: MTS cell survival assay, panel of cancer cell-lines; type: cell-based; settings: for IC50: MTS
Method: The antitumor range of action of CX-3543 was tested in vitro using a panel of cancer cell-lines and evaluated using an MTS cell survival assay. Cells were exposed to CX3543 at various concentrations over a four day period, and IC50 values were calculated. Generally, 2,000 to 5,000 cells were seeded in each well of a 96-well plate and incubated overnight. A serial dilution of testing compounds was added to cells and further incubated for 4 days at 37° C., in a 5% CO2 humidified incubator. The survival cell numbers were evaluated by the MTS method as described in the manufacturer's protocol (Promega). […] In particular examples, IC50 values were measured by Alamar Blue.

[6] = target: CYP1A2 (Homo sapiens, UniProt P05177); experiment: Cytochrome P450 inhibition assay; type: in vitro ADME
Method: (§2) Cytochrome P450 (CYP450) Inhibition Assay. […] The reactions were initiated by adding 100 μL of a pre-warmed enzyme/substrate solution to the reaction tubes. A zero time-point control reaction was prepared by adding 50 μL of acetonitrile to 100 μL of cofactor solution to inactivate the enzymes, then adding 100 μL of enzyme/substrate solution. A control reaction with no inhibitor was also prepared. After a suitable incubation at 37° C., the reactions were terminated by the addition of 50 μL of acetonitrile. The reactions were analyzed for the metabolite forms of the probe substrate using LC/MS/MS. Each assay was performed in duplicate.

[7] = target: CYP2D6 (Homo sapiens, UniProt P10635); experiment: Cytochrome P450 inhibition assay; type: in vitro ADME
Method: as §2

[8] = target: CYP2C9 (Homo sapiens, UniProt P11712); experiment: Cytochrome P450 inhibition assay; type: in vitro ADME
Method: as §2

[9] = target: CYP3A4 (Homo sapiens, UniProt P08684); experiment: Cytochrome P450 inhibition assay; type: in vitro ADME
Method: as §2

[10] = target: CYP2C19 (Homo sapiens, UniProt P33261); experiment: Cytochrome P450 inhibition assay; type: in vitro ADME
Method: as §2

CYP3A4, sequence (P08684 whole entry): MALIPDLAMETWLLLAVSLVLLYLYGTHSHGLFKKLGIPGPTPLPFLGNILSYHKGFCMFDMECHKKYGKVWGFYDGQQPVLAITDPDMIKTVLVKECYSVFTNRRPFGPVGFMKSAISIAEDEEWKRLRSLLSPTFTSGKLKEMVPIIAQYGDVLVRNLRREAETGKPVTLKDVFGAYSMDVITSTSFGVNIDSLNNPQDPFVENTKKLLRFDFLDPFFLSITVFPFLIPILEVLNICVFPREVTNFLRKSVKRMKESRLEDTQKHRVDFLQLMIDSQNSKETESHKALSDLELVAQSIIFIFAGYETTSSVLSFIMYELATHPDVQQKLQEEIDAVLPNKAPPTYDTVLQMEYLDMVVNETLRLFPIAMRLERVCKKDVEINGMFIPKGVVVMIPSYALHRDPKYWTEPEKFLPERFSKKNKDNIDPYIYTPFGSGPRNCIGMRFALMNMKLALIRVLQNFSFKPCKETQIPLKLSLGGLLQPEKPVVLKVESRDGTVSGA
CYP2C9, sequence (P11712 whole entry): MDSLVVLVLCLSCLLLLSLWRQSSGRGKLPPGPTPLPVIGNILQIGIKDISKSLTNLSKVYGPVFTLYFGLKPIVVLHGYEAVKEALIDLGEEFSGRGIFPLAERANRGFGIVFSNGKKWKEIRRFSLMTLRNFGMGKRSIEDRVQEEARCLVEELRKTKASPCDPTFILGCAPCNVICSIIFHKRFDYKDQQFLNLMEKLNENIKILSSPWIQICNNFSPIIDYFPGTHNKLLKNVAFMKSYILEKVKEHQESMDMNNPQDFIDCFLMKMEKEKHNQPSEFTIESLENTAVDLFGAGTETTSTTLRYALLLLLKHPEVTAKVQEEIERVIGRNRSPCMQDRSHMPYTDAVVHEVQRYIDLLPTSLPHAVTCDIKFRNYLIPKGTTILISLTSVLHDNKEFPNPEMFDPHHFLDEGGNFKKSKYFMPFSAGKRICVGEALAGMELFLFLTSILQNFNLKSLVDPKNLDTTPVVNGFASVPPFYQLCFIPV
CYP2D6, sequence (P10635 whole entry): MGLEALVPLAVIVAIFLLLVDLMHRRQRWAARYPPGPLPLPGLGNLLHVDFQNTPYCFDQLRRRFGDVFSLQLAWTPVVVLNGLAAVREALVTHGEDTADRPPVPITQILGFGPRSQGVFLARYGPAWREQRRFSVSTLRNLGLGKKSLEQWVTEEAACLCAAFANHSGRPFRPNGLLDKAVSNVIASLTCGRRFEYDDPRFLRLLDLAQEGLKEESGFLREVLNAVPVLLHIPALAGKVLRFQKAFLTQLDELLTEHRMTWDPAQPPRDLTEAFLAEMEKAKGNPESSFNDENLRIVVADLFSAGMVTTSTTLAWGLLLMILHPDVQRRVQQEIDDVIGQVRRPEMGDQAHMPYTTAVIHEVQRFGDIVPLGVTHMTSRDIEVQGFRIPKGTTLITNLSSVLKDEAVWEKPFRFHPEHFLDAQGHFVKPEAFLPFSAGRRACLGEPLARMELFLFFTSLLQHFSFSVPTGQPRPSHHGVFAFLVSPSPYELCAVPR
CYP2C19, sequence (P33261 whole entry): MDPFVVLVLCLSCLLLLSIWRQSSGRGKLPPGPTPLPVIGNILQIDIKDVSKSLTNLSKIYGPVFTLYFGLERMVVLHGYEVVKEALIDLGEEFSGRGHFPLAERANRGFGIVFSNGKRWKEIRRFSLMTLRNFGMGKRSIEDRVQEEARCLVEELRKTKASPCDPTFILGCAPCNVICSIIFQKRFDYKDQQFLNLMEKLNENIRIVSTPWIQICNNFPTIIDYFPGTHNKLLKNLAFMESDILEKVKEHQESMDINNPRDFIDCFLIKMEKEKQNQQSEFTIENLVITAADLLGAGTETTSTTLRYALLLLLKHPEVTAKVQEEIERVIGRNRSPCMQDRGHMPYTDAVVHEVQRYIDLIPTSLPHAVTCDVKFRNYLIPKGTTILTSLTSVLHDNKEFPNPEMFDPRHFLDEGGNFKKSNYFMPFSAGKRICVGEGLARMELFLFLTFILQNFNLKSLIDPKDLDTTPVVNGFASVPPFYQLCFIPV
CYP1A2, sequence (P05177 whole entry): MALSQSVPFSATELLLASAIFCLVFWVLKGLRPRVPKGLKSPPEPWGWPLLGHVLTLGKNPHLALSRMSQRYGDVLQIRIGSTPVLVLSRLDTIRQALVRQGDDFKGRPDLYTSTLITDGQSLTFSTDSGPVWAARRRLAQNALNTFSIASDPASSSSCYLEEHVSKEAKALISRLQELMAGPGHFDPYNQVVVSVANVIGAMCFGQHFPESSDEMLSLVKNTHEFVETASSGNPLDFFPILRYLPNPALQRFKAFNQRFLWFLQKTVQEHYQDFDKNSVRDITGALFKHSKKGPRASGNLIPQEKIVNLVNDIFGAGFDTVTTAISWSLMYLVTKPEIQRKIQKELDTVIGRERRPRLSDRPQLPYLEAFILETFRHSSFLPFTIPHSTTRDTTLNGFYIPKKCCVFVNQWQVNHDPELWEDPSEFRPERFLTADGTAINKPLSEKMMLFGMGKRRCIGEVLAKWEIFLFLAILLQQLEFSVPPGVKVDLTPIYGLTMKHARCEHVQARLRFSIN

CN1CCCC1CCNC(=O)c1cn2c3c(c(N4CCC(c5cnccn5)C4)c(F)cc3c1=O)Oc1cc3ccccc3cc1-2 (centres unmarked) [CX-3543]
tumor growth inhibition [1]: inhibits tumor growth; also recorded: significant tumor growth inhibition
selectivity footprint by oncogene [2]: selectively binds to those quadruplexes that are capable of adopting the chair/propeller conformation
tolerance ([3]; five consecutive daily IV doses, mid- and low-dose levels (7.6 and 2.4 mg/kg)): toxicologically well tolerated
mortality ([3]; high dose animals (24 mg/kg), five day course): approximately 5%
tumor growth inhibition [4]: inhibits tumor growth; also recorded: significant tumor growth inhibition
IC50 ([5]; 96 h, PC3 (Prostate), 4 days): 3200 nM
IC50 ([5]; Homo sapiens, 786-0, 96 h, 786-O, 4 days): 2100 nM
IC50 ([5]; Homo sapiens, 96 h, A549, 4 days): 2900 nM
IC50 ([5]; Homo sapiens, 96 h, HCT-116 (Colorectal), 4 days): 3300 nM
IC50 ([5]; Homo sapiens, 96 h, HT-29, 4 days): 5500 nM
IC50 ([5]; Homo sapiens, 96 h, HeLa (cervical), 4 days): 3300 nM
IC50 ([5]; Homo sapiens, 96 h, HepG2, 4 days): 2500 nM
IC50 ([5]; Homo sapiens, 96 h, MDA-MB-231 (Breast), 4 days): 2400 nM
IC50 ([5]; Homo sapiens, 96 h, MDA-MB-468 (Breast), 4 days): 1500 nM
IC50 ([5]; Homo sapiens, 96 h, Ramos (Burkitt's Lymphoma), 4 days): 300 nM
IC50 ([5]; Homo sapiens, MIA PaCa-2, 96 h, MiaPaca, 4 days): 2800 nM
IC50 in MTS assays over a broad range of tumor types ([5]; four day exposure): submicromolar to single digit micromolar
inhibition of CYP1A2 [6]: No significant inhibition
inhibition of CYP2D6 [7]: No significant inhibition
IC50 ([7]; isoform 2D6, substrate Dextromethorphan): > 25000 nM
inhibition of CYP2C9 [8]: No significant inhibition
IC50 ([8]; isoform 2C9, substrate Diclofenac): > 10000 nM
range in which only minor and partial inhibition of CYP3A4 was evident [9]: 1 to 3 µM
IC50 ([9]; isoform 3A4, substrate Midazolam): 1400 nM
IC50 ([9]; isoform 3A4, substrate Testosterone): 3300 nM
inhibition of CYP2C19 [10]: No significant inhibition
